# Assays:
# [1] = molecular target: autophagocytosis (luciferase uptake into isolated yeast vacuoles); test: In vitro autophagocytosis assay (luciferase uptake into isolated vacuoles); type: biochemical, Saccharomyces cerevisiae; conditions: standard uptake reaction, cell-free, sample without inhibitor as 100% reference, FIG. 7; read-out: IC50 for prevention of vesicle formation (luciferase uptake)
# Description: This mixture was incubated for 1 h at 27° C. A 70 μl sample was chilled on ice, diluted with 300 μl 150 mM KCl in PS buffer, centrifuged (6800×g, 4 min, 2° C., fixed angle table top centrifuge), washed twice with 300 μl 150 mM KCl in PS buffer, and resuspended in 60 μl 150 mM KCl in PS buffer. 10 μl were used to check for complete vacuole recovery by determining the protein concentration or, alternatively, the activity of endogenous Pho8p (according to Haas et al., 1994). 40 μl of the suspension were treated with proteinase K (15 min, 0° C., 275 μg/ml, added from a 5 mg/ml stock in PS) to digest surface-bound luciferase. Digestion was terminated by adding an equal volume of freshly prepared PMSF solution (0.5 mM PMSF, 150 mM KCl, in PS buffer). Luciferase activity was determined from a 25 μl aliquot in a luminometer using a luciferase kit (Berthold Detection Systems, Pforzheim) according to the instructions of the supplier.
# firefly luciferase = firefly luciferase (Photinus pyralis, UniProt P08659); test: Direct influence on luciferase activity (control); type: biochemical; conditions: not shown
# Sequence of firefly luciferase (P08659 whole entry): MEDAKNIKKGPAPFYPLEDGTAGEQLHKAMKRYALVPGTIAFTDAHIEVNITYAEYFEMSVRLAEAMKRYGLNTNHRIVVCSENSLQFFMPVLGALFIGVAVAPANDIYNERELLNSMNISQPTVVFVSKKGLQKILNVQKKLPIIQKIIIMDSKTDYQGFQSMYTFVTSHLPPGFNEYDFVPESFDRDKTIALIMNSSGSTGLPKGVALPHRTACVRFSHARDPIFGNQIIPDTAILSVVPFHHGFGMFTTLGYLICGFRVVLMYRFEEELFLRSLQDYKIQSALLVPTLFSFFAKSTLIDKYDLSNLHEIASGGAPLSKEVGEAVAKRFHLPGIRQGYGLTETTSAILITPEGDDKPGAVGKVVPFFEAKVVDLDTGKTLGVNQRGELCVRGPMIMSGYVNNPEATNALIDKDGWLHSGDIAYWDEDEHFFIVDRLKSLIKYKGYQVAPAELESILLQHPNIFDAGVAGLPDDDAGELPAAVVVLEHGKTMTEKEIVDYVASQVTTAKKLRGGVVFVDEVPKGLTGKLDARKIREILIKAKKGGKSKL
# [2] = tested on: autophagocytosis in yeast; conditions: nocodazole treatment disassembling microtubules (Kirisako et al. 1999); cited from earlier work
SMILES,IC50 [1],influence on luciferase activity by itself (firefly luciferase),block of autophagocytosis in yeast [2]
Nc1nc2c(ncn2[C@@H]2O[C@H](COP(=O)(O)OP(=O)(O)OP(O)(O)=S)[C@@H](O)[C@H]2O)c(=O)[nH]1 [GTPγS],100 µM,did not influence luciferase activity by itself,
COC(=O)Nc1nc2ccc(C(=O)c3cccs3)cc2[nH]1 [nocodazole],,,does not block autophagocytosis

# Source: patent US20040171061A1 (priority 2000, published 2004)
